This note sets out measurements from patent US7998988B2, “Biphenyl compounds useful in the treatment or prevention of cardiovascular disorders” (Bayer Schering Pharma Aktiengellschaft, priority 2005, dated 2011).

In the experiment the test system is saphenous artery rings. Put plainly: Vasorelaxant effect in vitro (phenylephrine-contracted artery rings). In kind it is cell-based. To be noted: rabbit saphenous artery rings, contraction induced by phenylephrine. As for the experimental part: Rabbits are anesthetized and sacrificed by intravenous injection of thiopental sodium (about 50 mg/kg) and exsanguinated. The saphenous artery is removed and divided into rings 3 mm wide. The rings are mounted singly on in each case a pair of triangular hooks open at the end and made of 0.3 mm-thick special wire (Remanium®). Each ring is placed under an initial tension in 5 ml organ baths with Krebs-Henseleit solution which is at 37° C., is gassed with 95% 02/5% CO2 and has the following composition: NaCl 119 mM; KCl 4.8 mM; CaCl2×2H2O 1 mM; MgSO4×7 H2O 1.4 mM; KH2PO4 1.2 mM; NaHCO3 25 mM; glucose 10 mM; bovine serum albumin 0.001%. The force of contraction is detected with Statham UC2 cells, amplified and digitized via A/D converters (DAS-1802 HC, Keithley Instruments, Munich) and recorded in parallel on chart recorders. Contractions are induced by addition of phenylephrine.
After several (generally 4) control cycles, the substance to be investigated is added in each further run in increasing dosage, and the height of the contraction achieved under the influence of the test substance is compared with the height of the contraction reached in the last preceding run. The concentration necessary to reduce the contraction reached in the preceding control by 50% is calculated from this (IC50). The standard application volume is 5 μl. The proportion of DMSO in the bath solution corresponds to 0.1%.

`COc1ccc(CCc2ccc(F)cc2/C=C/C(CCc2ccc(-c3noc(=O)[nH]3)cc2)Cc2ccc(C(=O)O)cc2)cc1` (single isomer, unassigned) [Example 11, E-4-(4-{5-Fluoro-2-[2-(4-methoxyphenyl)ethyl]phenyl}-2-{2-[4-(5-oxo-4,5-dihydro-[1,2,4]oxadiazol-3-yl)phenyl]ethyl}but-3-enyl)benzoic acid] showed an IC50 (Oryctolagus cuniculus) of 724 nM.

`CC(C)(C)c1ccc(COc2ccccc2/C=C/C(CCc2ccc(C(=O)O)cc2)Cc2ccc(-c3noc(=O)[nH]3)cc2)cc1` (single isomer, unassigned) [Example 66] came in with an IC50 (Oryctolagus cuniculus) of 263 nM.

For the compound `CC(C)(C)c1ccc(COc2ccccc2/C=C/C(CCc2ccc(C(=O)O)cc2)Cc2ccc(-c3n[nH]c(=O)[nH]3)cc2)cc1` (stereo not shown) [Example 80, 4-{(4E)-5-{2-[(4-tert-Butylbenzyl)oxy]phenyl}-3-[4-(5-oxo-4,5-dihydro-1H-1,2,4-triazol-3-yl)benzyl]pent-4-en-1-yl}benzoic acid], half-maximal inhibition (Oryctolagus cuniculus) (IC50) was put at 74 nM.

With `O=C(O)c1ccc(CC(/C=C/c2ccccc2OCc2ccc(-c3ccc(C(F)(F)F)cc3)cc2)CCc2ccc(-c3noc(=O)[nH]3)cc2)cc1` (single isomer, unassigned) [Example 19], it took 850 nM to reach half-maximal inhibition (IC50).

In turn, `CC(C)(C)c1ccc(COc2ccccc2/C=C/C(CCCCC(=O)O)Cc2ccc(-c3n[nH]c(=O)o3)cc2)cc1` (stereo not shown) [Example 85, E-8-[2-(4-tert-Butylbenzyloxy)phenyl]-6-[4-(5-oxo-4,5-dihydro-[1,3,4]oxadiazol-2-yl)benzyl]oct-7-enoic acid] showed a half-maximal inhibitory concentration (IC50) (Oryctolagus cuniculus) of 58 nM.

Turning to `CC(C)(C)c1ccc(COc2ccccc2/C=C/C(CCCCC(=O)O)CCc2ccc(-c3noc(=O)[nH]3)cc2)cc1` (single isomer, unassigned) [Example 71, E-8-[2-(4-tert-Butylbenzyloxy)phenyl]-6-{2-[4-(5-oxo-4,5-dihydro-[1,2,4]oxadiazol-3-yl)phenyl]-ethyl}oct-7-enoic acid], for the setting “Oryctolagus cuniculus”, the IC50 worked out at 898 nM.

For the compound `CC(C)(C)c1ccc(COc2ccccc2/C=C/C(CCc2ccc(C(=O)O)cc2)Cc2ccc(-c3n[nH]c(N)n3)cc2)cc1` (stereo not shown) [Example 81, 4-((4E)-3-[4-(5-Amino-1H-1,2,4-triazol-3-yl)benzyl]-5-{2-[(4-tert.-butylbenzyl)oxy]phenyl}pent-4-en-1-yl)benzoic acid], the IC50 (Oryctolagus cuniculus) came to 422 nM.

With `CC(C)(C)c1ccc(COc2ccc(F)cc2/C=C/C(CCc2ccc(-c3noc(=O)[nH]3)cc2)Cc2ccc(C(=O)O)cc2)cc1` (single isomer, unassigned) [Example 51], the half-inhibitory concentration (IC50) (Oryctolagus cuniculus) was determined as 505 nM. The IC50 values of the last two compounds are within 1.5-fold of each other.

Turning to `CC(C)(C)c1ccc(COc2ccccc2/C=C/C(CCc2ccc(C(=O)O)cc2)Cc2ccc(-c3n[nH]c(=O)o3)cc2)cc1` (single isomer, unassigned) [Example 78, 4-{(4E)-5-{2-[(4-tert-Butylbenzyl)oxy]phenyl}-3-[4-(5-oxo-4,5-dihydro-1,3,4-oxadiazol-2-yl)benzyl]pent-4-en-1-yl}benzoic acid], half-maximal inhibition (Oryctolagus cuniculus) (IC50) required 13 nM.

For the compound `O=C(O)c1ccc(CCC(/C=C\c2ccccc2OC(F)(F)F)Cc2ccc(-c3noc(=O)[nH]3)cc2)cc1` (single isomer, unassigned) [Example 96], the concentration for half-maximal inhibition (IC50) (Oryctolagus cuniculus) worked out at 1330 nM.

In the case of `CC(C)(C)c1ccc(COc2ccccc2/C=C/C(CCc2ccc(C(=O)O)cc2)Cc2ccc(-c3noc(=O)[nH]3)cc2)cc1` (single isomer, unassigned) [Example 67], the IC50 turned out to be 153 nM. This counts as sub-micromolar.

For the compound `CC(C)(C)c1ccc(COc2ccccc2/C=C/C(CCc2ccc(-c3n[nH]c(=S)[nH]3)cc2)Cc2ccc(C(=O)O)cc2)cc1` (stereo not shown) [Example 76, 4-((3E)-4-{2-[(4-tert-Butylbenzyl)oxy]phenyl}-2-{2-[4-(5-thioxo-4,5-dihydro-1H-1,2,4-triazol-3-yl)phenyl]ethyl}but-3-en-1-yl)benzoic acid], the half-inhibitory concentration (IC50) (Oryctolagus cuniculus) was 851 nM.

Under “Oryctolagus cuniculus”, `O=C(O)c1ccc(CN(CCc2ccc(-c3noc(=O)[nH]3)cc2)CCc2ccccc2OCc2ccc(-c3ccc(C(F)(F)F)cc3)cc2)cc1` [Example 1, 4-[({2-[4-(5-Oxo-4,5-dihydro-[1,2,4]oxadiazol-3-yl)phenyl]ethyl}-{2-[2-(4′-trifluoromethylbiphenyl-4-ylmethoxy)phenyl]ethyl}amino)methyl]benzoic acid] showed an IC50 of 26 nM.

Regarding `CCCCCCOc1ccccc1/C=C/C(CCc1ccc(C(=O)O)cc1)Cc1ccc(-c2noc(=O)[nH]2)cc1` (single isomer, unassigned) [Example 95], half-maximal inhibition (Oryctolagus cuniculus) (IC50) required 410 nM. This IC50 lies about 16-fold higher than the previous one.

`O=C(O)c1ccc(CC(/C=C/c2ccccc2OCc2ccc(-c3ccc(C(F)(F)F)cc3)cc2)CCc2ccc(-c3noc(=O)[nH]3)cc2)cc1` (single isomer, unassigned) [Example 18] had an IC50 (Oryctolagus cuniculus) of 490 nM. The IC50 values of the last two compounds are within 1.5-fold of each other.

Regarding `O=C(O)c1ccc(CCC(/C=C\c2ccccc2OCc2ccc(-c3ccc(C(F)(F)F)cc3)cc2)Cc2ccc(-c3noc(=O)[nH]3)cc2)cc1` (single isomer, unassigned) [Example 57], where the note is “Oryctolagus cuniculus”, half-maximal inhibition (IC50) was put at 714 nM.

Compound `O=C(O)c1ccc(CCC(/C=C/c2ccccc2OCc2ccc(-c3ccc(C(F)(F)F)cc3)cc2)Cc2ccc(-c3noc(=O)[nH]3)cc2)cc1` (single isomer, unassigned) [Example 56, E-4-{3-[4-(5-Oxo-4,5-dihydro-[1,2,4]oxadiazol-3-yl)benzyl]-5-[2-(4′-trifluoromethylbiphenyl-4-ylmethoxy)phenyl]pent-4-enyl}benzoic acid] had a concentration for half-maximal inhibition (IC50) of 635 nM.

In turn, `CCCCCOc1ccccc1/C=C/C(CCc1ccc(C(=O)O)cc1)Cc1ccc(-c2noc(=O)[nH]2)cc1` (single isomer, unassigned) [Example 92] returned an IC50 (Oryctolagus cuniculus) of 390 nM.

Under “Oryctolagus cuniculus”, `CC(C)(C)c1ccc(COc2ccccc2/C=C/C(CCCCC(=O)O)CCc2ccc(-c3n[nH]c(=O)o3)cc2)cc1` (stereo not shown) [Example 74] registered a half-inhibitory concentration (IC50) of 290 nM.

The IC50 is the point on the concentration scale where inhibition reaches its midpoint. Read a high IC50 as weaker potency in that assay.
